Legend:
[1] = Blood brain barrier crossing, mass spectrometry of cerebrospinal fluid of treated mice; type: in vivo; conditions: CSF of treated animals
[2] = Pharmacokinetics in rats, plasma HPLC; type: in vivo; conditions: both sexes, rat, 15 ug/kg
Procedure: The rats were randomly divided into two groups (I and II) in half respectively male and female. A dose of 15 μg/kg of Compound Y was administered to group I and II. Serial blood samples (0.5 mL) were collected into heparinized tubes from the retro-orbital region at 1, 2, 4, 6, 12, 24, 36, 48, and 72 h. Samples were immediately centrifuged at 12,000 rpm for 10 min and stored at −20° C. until analysis. Plasma was processed for HPLC analysis. 100 μl Acetonitrile was added in 100 μl plasma (1:1) and centrifuge at 12,000 for 5 minute. Supernatant transferred in a clean tube. Dried under Nitrogen gas 200 μl Acetonitrile: water (1:1) was added in dry tube and centrifuge at 12,000 rpm for 15 minute. Filtered with 0.2 μm membrane filter. 20 μl samples were used for analysis in HPLC. […] (FIG. 5)

For `O=C(O)CCCCCN1C(=O)/C(=C/c2c[nH]c3ccccc23)SC1=S` [SG001], the “crossing of blood brain barrier (detection in CSF)” value [1] was “able to cross the blood brain barrier”, the Cmax [2] was 27 nM and the Tmax [2] was 48 h.
